Laboratory results reported in patent publication US20250084096A1, “TERT-BUTYL (S)-2-(4-(PHENYL)-6H-THIENO[3, 2-F][1, 2, 4]TRIAZOLO[4, 3-A] [1,4]DIAZEPIN-6-YL) ACETATE DERIVATIVES AND RELATED COMPOUNDS AS BROMODOMAIN BRD4 INHIBITORS FOR TREATING CANCER” (Genentech, Inc., priority 2018, published 2025).

Tests used:
BRD4_BD1 bromodomain = BRD4_BD1 bromodomain (Homo sapiens (Human), UniProt O60885); assay: BRD4 BD1 biochemical binding assay (TR-FRET); settings: displacement of biotinylated ligand Compound C
Description: (§1) The following assay was used to measure the IC50 for the test compounds ability to bind to the BRD4_BD1 and BRD4_BD2 bromodomains.
(§2) DMSO was backfilled to a final volume of 30 nL as required. […] 1× Assay Buffer was dispensed (5 μL per well) into Minimum Signal control wells. 5 μL of Solution A-3× was dispensed into test wells and Maximum Signal control wells (containing DMSO instead of test compound). Samples were incubated 10 minutes at room temperature. 5 μL of Solution B-3x was dispensed into all wells. Samples were incubated incubate for 10 minutes at room temperature. 5 μL of Solution C-3x was dispensed into all wells. Samples were incubated 40 minutes at room temperature. Plates were read using an Envision (Perkin Elmer) with the following settings: Detection—LANCE Dual Laser 50/200. […] Percentage inhibition was calculated relative to the Minimum Signal control and Maximum Signal control wells. IC50 values were derived by four parameter curve fitting using the Robust method.

BRD4_BD2 bromodomain = BRD4_BD2 bromodomain (Homo sapiens (Human), UniProt O60885); assay: BRD4 BD2 biochemical binding assay (TR-FRET); settings: displacement of biotinylated ligand Compound C
Description: as §1, §2

BRD4 [1] = target: T1, BRD4 (Homo sapiens (Human), UniProt O60885); assay: BRD4 degradation assay in PC3-Steap1 cells; assay type: cell-based; settings: 4 hours; for Dmax: complete loss = −100%, read-out: Sinf (maximum degradation, percent change in protein level); for DC50: immunofluorescence, read-out: Degradation of BRD4 Average EC50
Description: 2 μL of each sample from the serial dilution was transferred to 98 μL of assay media as an intermediate dilution. 5 μL of intermediate dilution was added to 45 μL of cell plate. Columns 1, 2, 23 and 24 were treated with only 0.2% w/v final concentration of DMSO for data normalization as “neutral controls”. After compound treatment, cell plates were stored in a 37° C. incubator for 4 hours.
Cell plate was incubated at room temperature for 20 minutes. Well contents were aspirated and washed with 100 μL/well PBS 3 times. 50 μL/well of PBS containing 0.5% w/v bovine serum albumen, 0.5% w/v Triton X-100 (Antibody Dilution Buffer) was added to each well. Samples were incubated for 30 minutes. Well contents were aspirated and washed 3 times with 100 μL/well of PBS. PBS was aspirated from the wells.
25 μL per well of BRD4 antibody diluted in buffer was added and incubated overnight at 4° C. On day-3 samples were washed 3 times with 100 μL/well of PBS. […] Samples were incubated for 2 hours at room temperature. Samples were washed 3 times with 100 μL PBS.
(§3) Quantitative fluorescence imaging of BRD4 was carried out using an Opera Phenix High-Content Screening System. […] Hoechst channel was used to identify nuclear region. […] Data analysis was carried out using Genedata Screener, with DMSO and no primary antibody control treated samples being used to define the 0% and 100% changes in BRD4. The dose-response log(inhibitor) vs. response was used to define the inflexion point of curve (IC50) and the plateau of the maximal effect. The Sit value reports degradation as percent change in protein level, so complete loss of the protein target is −100%. Sinf is the maximum degradation achieved, obtained by determining the bottom of a dose-response (where the S-shaped curve levels out).

BRD4 [2] = target: T1, BRD4; assay: BRD4 degradation assay in EoL-1 cells; assay type: cell-based; settings: for DC50: 4 hours, immunofluorescence, read-out: Degradation of BRD4 Average EC50; for Dmax: EOL1, 4 hours, complete loss = −100%, read-out: Sinf (maximum degradation, percent change in protein level)
Description: 2 μL of each sample from the serial dilution was transferred to 98 μL of assay media as an intermediate dilution. 5 μL of each well of the intermediate dilution was added to 45 μL of cell plate. Columns 1, 2, 23 and 24 were treated with only 0.2% final concentration of DMSO for data normalization as “neutral controls”. After compound treatment, cell plates were stored in a 37° C. incubator for 4 hours.
The cell plate was incubated at room temperature for 20 minutes. Well contents were aspirated and washed with 100 μL/well PBS 3 times. 50 μL/well of PBS (pH7.5) containing 0.5% w/v bovine serum albumen, 0.5% w/v Triton X-100 (Block/Permeabilzation Buffer) was added to each well. Samples were incubated for 20 minutes. Well contents were aspirated and washed 3 times with 100 μL/well of PBS. PBS was aspirated from the well and 50 μL per well of EoL-1 Block Buffer (PBS containing 10% Normal Goat Serum (Abcam #ab7481)) was added to each well. Plates were incubated at room temperature for 30 minutes. Block buffer was decanted from the wells.
25 μL per well of BRD4 antibody diluted in buffer was added and incubated overnight at 4° C. On day-2 samples were washed 3 times with 100 μL/well of PBS. […] Samples were incubated for 2 hours at room temperature. Samples were washed 3 times with 100 μL PBS.
as §3, with “Sinf” for “Sit”

MYC expression = assay: Myc mRNA assay in MV-4-11 cells; assay type: cell-based; settings: for Maximum Inhibition (%) (mean) of MYC expression: 4 hours, QuantiGene 2.0; for IC50: Homo sapiens, MV4-11, 4 hours, QuantiGene 2.0, read-out: Inhibition of MYC expression Average IC50
Description: Pharmacologic inhibition of MYC is achievable through targeting BET bromodomains through small molecule binder or degrader mechanisms.
Test compounds diluted in DMSO were transferred to the cell plates, keeping final DMSO concentration consistent at 0.1%, and incubated for 4 hours at 37° C. […] Luminescence was read using an EnVision plate reader (PerkinElmer) and IC50s generated in Genedata Screener using a 4-parameter non-linear regression fit.

Structure (SMILES)	IC50 (BRD4_BD1 bromodomain) [nM]	IC50 (BRD4_BD2 bromodomain) [nM]	Dmax (BRD4 [1]) [%]	DC50 (BRD4 [1]) [nM]	DC50 (BRD4 [2]) [nM]	Dmax (BRD4 [2]) [%]	Maximum Inhibition (%) (mean) of MYC expression (MYC expression)	IC50 (MYC expression) [nM]
Cc1sc2c(c1C)C(c1ccc(C#CCN)cc1)=N[C@@H](CC(=O)OC(C)(C)C)c1nnc(C)n1-2 [Compound 1a, tert-butyl (S)-2-(4-(4-(3-aminoprop-1-yn-1-yl)phenyl)-2,3,9-trimethyl-6H-thieno[3,2-f][1,2,4]triazolo[4,3-a][1,4]diazepin-6-yl)acetate]	15.5	12.3	-84.6	1.4	1.3	-83.8	89.1	2.9
Cc1sc2c(c1C)C(c1ccc(C#CCN)cc1)=N[C@H](CC(=O)OC(C)(C)C)c1nnc(C)n1-2 [Compound 1b, tert-butyl (R)-2-(4-(4-(3-aminoprop-1-yn-1-yl)phenyl)-2,3,9-trimethyl-6H-thieno[3,2-f][1,2,4]triazolo[4,3-a][1,4]diazepin-6-yl)acetate]	199	272	-74.5	10.5	9	-87	86.6	67.5
CNCC#Cc1ccc(C2=N[C@@H](CC(=O)OC(C)(C)C)c3nnc(C)n3-c3sc(C)c(C)c32)cc1 [Compound 2a, tert-butyl (S)-2-(2,3,9-trimethyl-4-(4-(3-(methylamino)prop-1-yn-1-yl)phenyl)-6H-thieno[3,2-f][1,2,4]triazolo[4,3-a][1,4]diazepin-6-yl)acetate]	14.4	17.1	-21.8	> 20000	> 20000		77.9	11.1
Cc1sc2c(c1C)C(c1ccc(C#CCCN)cc1)=N[C@@H](CC(=O)OC(C)(C)C)c1nnc(C)n1-2 [Compound 4a, tert-butyl (S)-2-(4-(4-(4-aminobut-1-yn-1-yl)phenyl)-2,3,9-trimethyl-6H-thieno[3,2-f][1,2,4]triazolo[4,3-a][1,4]diazepin-6-yl)acetate]	13	17.7	-54.7	3.4			79.4	19.8
Cc1sc2c(c1C)C(c1ccc(C#CCNC(=N)N)cc1)=N[C@@H](CC(=O)OC(C)(C)C)c1nnc(C)n1-2 [Compound 5a, tert-butyl (S)-2-(4-(4-(3-guanidinoprop-1-yn-1-yl)phenyl)-2,3,9-trimethyl-6H-thieno[3,2-f][1,2,4]triazolo[4,3-a][1,4]diazepin-6-yl)acetate]	7.2	8.5	-86	101			87.6	124
Cc1sc2c(c1C)C(c1ccc(/C=C/CN)cc1)=N[C@@H](CC(=O)OC(C)(C)C)c1nnc(C)n1-2 [Compound 6a, tert-butyl (S,E)-2-(4-(4-(3-aminoprop-1-en-1-yl)phenyl)-2,3,9-trimethyl-6H-thieno[3,2-f][1,2,4]triazolo[4,3-a][1,4]diazepin-6-yl)acetate]			-73.1			-77.9	88.4	2
Cc1sc2c(c1C)C(c1ccc(C#CCO)cc1)=N[C@@H](CC(=O)OC(C)(C)C)c1nnc(C)n1-2 [Compound 7a, tert-butyl (S)-2-(4-(4-(3-hydroxyprop-1-yn-1-yl)phenyl)-2,3,9-trimethyl-6H-thieno[3,2-f][1,2,4]triazolo[4,3-a][1,4]diazepin-6-yl)acetate]	17.8	10.3		> 20000			72.9	25.7
Cc1sc2c(c1C)C(c1ccc(C#CCNO)cc1)=N[C@@H](CC(=O)OC(C)(C)C)c1nnc(C)n1-2 [Compound 8a, tert-butyl (S)-2-(4-(4-(3-(hydroxyamino)prop-1-yn-1-yl)phenyl)-2,3,9-trimethyl-6H-thieno[3,2-f][1,2,4]triazolo[4,3-a][1,4]diazepin-6-yl)acetate]			-92.6			-92.2	95.1	7.2
Cc1sc2c(c1C)C(c1ccc(CCCN)cc1)=N[C@@H](CC(=O)OC(C)(C)C)c1nnc(C)n1-2 [Compound 9a, tert-butyl (S)-2-(4-(4-(3-aminopropyl)phenyl)-2,3,9-trimethyl-6H-thieno[3,2-f][1,2,4]triazolo[4,3-a][1,4]diazepin-6-yl)acetate]			-57.6				78.1	27.7
Cc1sc2c(c1C)C(c1ccc(C#CC(C)N)cc1)=N[C@@H](CC(=O)OC(C)(C)C)c1nnc(C)n1-2 (stereo partly drawn) [Compound 11a, tert-butyl 2-((6S)-4-(4-(3-aminobut-1-yn-1-yl)phenyl)-2,3,9-trimethyl-6H-thieno[3,2-f][1,2,4]triazolo[4,3-a][1,4]diazepin-6-yl)acetate]	14.1	10.6	-43.3	> 20000			72.5	20.7
Cc1sc2c(c1C)C(c1ccc(C#CC(C)(C)N)cc1)=N[C@@H](CC(=O)OC(C)(C)C)c1nnc(C)n1-2 [Compound 12a, tert-butyl (S)-2-(4-(4-(3-amino-3-methylbut-1-yn-1-yl)phenyl)-2,3,9-trimethyl-6H-thieno[3,2-f][1,2,4]triazolo[4,3-a][1,4]diazepin-6-yl)acetate]							73.3	12.6
COC(=O)c1cc2c(cc1CS(C)(=O)=O)-c1cn(C)c(=O)c3[nH]cc(c13)CN2c1ncc(C#CCN)cc1F [Compound 15, methyl 4-(5-(3-aminoprop-1-yn-1-yl)-3-fluoropyridin-2-yl)-10-methyl-7-((methylsulfonyl)methyl)-11-oxo-3,4,10,11-tetrahydro-1H-1,4,10-triazadibenzo[cd,f]azulene-6-carboxylate]				> 20000	> 20000		75.7	7.2
Cc1sc2c(c1C)C(c1ccc(Cl)cc1)=N[C@@H](CC(=O)OC(C)(C)C)c1nnc(C)n1-2 [Compound A, tert-butyl (S)-2-(4-(4-chlorophenyl)-2,3,9-trimethyl-6H-thieno[3,2-f][1,2,4]triazolo[4,3-a][1,4]diazepin-6-yl)acetate, reference compound]							76.3	83.4
